{"source": "patent US6555128B2", "about": "“Feeds containing docosahexaenoic acid and/or conjugated docosahexaenoic acid, and a method for farming fishes by using such feeds” (Hokkaido University, priority 2000, dated 2003)", "key": {"steelheads [1]": {"tested_on": "steelheads", "experiment": "Feeding of steelheads: content and composition of the lipid in the internal organ", "assay_type": "in vivo, Oncorhynchus, steelheads (rainbow trouts)", "experimental": "(§1) Effects of ethyl docosahexaenoate and conjugated ethyl docosahexaenoate upon accumulation of the fat and the lipid composition were examined by feeding both ethyl esters to rainbow trouts.\n(§2) Measuring conditions were as follows.\n(§3) 1) Sample fish: Oncorhynchus, steelheads 3 months old after birth\n(§4) 2) Farming condition: water temperature 10° C., each group 60 fishes\n(§5) 3) Feed (fundamental feed: compounded feed for oriental trouts)\n(§6) 1st group: fundamental feed +olive oil (5 wt %)\n(§7) 2nd group: fundamental feed +olive oil (3 wt %) +ethyl docosahexaenoate (0.5 wt %)\n(§8) 3rd group: fundamental feed +olive oil (4.5 wt %) +ethyl conjugated docosahexaenoate (0.5 wt %)\n(§9) 4th group: fundamental feed +olive oil (3 wt %) +ethyl conjugated docosahexaenoate (2 wt %)\n(§10) Conjugated ethyl docosahexaenoate used is obtained by isomerization of double bonds of ethyl docosahexaenoate in the presence of an alkali catalyst, and its composition consisted of 81.4% of conjugated ethyl docosahexaenoate and 18.6% of ethyl docosahexaenoate. More specifically, conjugated ethyl docosahexaenoate consisted of 57.4% of conjugated diene ester, 12.0% of conjugated triene ester, 12.0% of conjugated tetraene ester and 18.6% of ethyl docosahexaenoate. […]\n(§11) Steelheads used, which were 3 months old after birth (average weight 0.82 g) and divided into four groups each consisting 60 steelheads, were farmed at a water temperature of about 10° C. for 21 weeks.\n(§12) Effects of the feeds upon the internal organs and the lipid contents of the steelheads 21 weeks old after starting the farming were examined. The concrete lipid compositions in the internal organs are shown in Table 1, and the concrete lipid compositions in muscles shown in Table 2."}, "steelheads [2]": {"tested_on": "steelheads", "experiment": "Feeding of steelheads: content and composition of the lipid in muscles", "assay_type": "in vivo, Oncorhynchus, steelheads (rainbow trouts)", "experimental": "as §1, §2, §3, §4, §5, §6, §7, §8, §9, §10, §11, §12"}, "[3]": {"conditions": "0.5 wt % in feed, farmed 21 weeks, water 10° C."}, "[4]": {"conditions": "2nd to 4th groups versus feed with neither ester"}}, "data": [{"smiles": "CC/C=C\\C/C=C\\C/C=C\\C/C=C\\C/C=C\\C/C=C\\CCC(=O)OCC", "note": "[ethyl docosahexaenoate]", "values": [{"measurement": "Lipid composition (%) FFA, internal organ", "setting": "steelheads [1]; [3]", "result": 3.0, "unit": "%"}, {"measurement": "Lipid composition (%) PL, internal organ", "setting": "steelheads [1]; [3]", "result": 5.8, "unit": "%"}, {"measurement": "Lipid composition (%) SE, internal organ", "setting": "steelheads [1]; [3]", "result": 1.6, "unit": "%"}, {"measurement": "Lipid composition (%) TG, internal organ", "setting": "steelheads [1]; [3]", "result": 89.6, "unit": "%"}, {"measurement": "Lipid content (%) in the internal organ", "setting": "steelheads [1]; [3]", "result": 23.2, "unit": "%"}, {"measurement": "lipid contents in the internal organs compared with 1st group (FIG. 1)", "setting": "steelheads [1]; [4]", "result": "lower lipid contents"}, {"measurement": "Lipid composition (%) FFA, muscles", "setting": "steelheads [2]; [3]", "result": 1.7, "unit": "%"}, {"measurement": "Lipid composition (%) PL, muscles", "setting": "steelheads [2]; [3]", "result": 21.0, "unit": "%"}, {"measurement": "Lipid composition (%) SE, muscles", "setting": "steelheads [2]; [3]", "result": 0.7, "unit": "%"}, {"measurement": "Lipid composition (%) TG, muscles", "setting": "steelheads [2]; [3]", "result": 76.6, "unit": "%"}, {"measurement": "Lipid content (%) in muscles", "setting": "steelheads [2]; [3]", "result": 4.3, "unit": "%"}, {"measurement": "lipid contents in the muscles compared with 1st group (FIG. 1)", "setting": "steelheads [2]; [4]", "result": "lower lipid contents"}]}]}
